pIC50: −log10 of the molar value.
Legend:
GB5 cells [1] = assay: Clonal expansion (clonal proliferation) of GB5; assay type: cell-based, human
Procedure: FIG. 2: Compounds 9a-b and 18a-b effect on stemness marker expression, clonal expansion and mitosis in GB5 cells. (A) NESTIN expression was assessed by immunofluorescence in GB5 treated with increasing amount of Compounds 9a-b and 18a. The number of NESTIN positive cells was counted for each treatment and express as percentage of the control (100%). The results are the meaning of at least two separate experiments. […] (C) Clonal expansion analysis was performed with GB5 cells as described in the material and method section. Two and three weeks later, the number of spheroids is counted and reported as percentage of the initial number of cells in the well. The results are the meaning of a minimum of two separate experiments. (D) The number of mitosis in the culture was determined by the detection of the number of cells positive for histone H3 phosphorylated on ser-10 (H3-ser10). H3-ser10 expression was assessed by immunofluorescence in GB5 treated with increasing amount of Compounds 9a-b and 18a. The number of positive cells was counted for each treatment and express as percentage of the control (100%). The results are the meaning of at least two separate experiments.
Clonal proliferation: TG6 and GB5 were seeded at 10 cells/well in 96 wells plate in NS34+ medium alone or containing growing concentration of Compounds 9a-b and 18a-b. Immediately after seeding, the real number of cells in the well was determined by direct count. Two and three weeks later, the resulting number of spheroids in each well was evaluated by a direct count. The % of clonal efficiency was calculated in dividing […].
It was further investigated the effects of selected compounds on GSC clonal expansion as well as their capacity of mitosis (FIGS. 2B and C). Compounds 9a-b and 18a treatment altered GSC clonal expansion and mitosis. The most efficient inhibition of clonal expansion was provided by Compound 9a treatment (IC50<10 uM) while both Compounds 9a-b were the most efficient for mitosis inhibition (IC50<10 uM) (FIGS. 2C and D).

GB5 = assay: XTT toxicity assay on GSC (GB5); assay type: cell-based
Procedure: (§1) FIG. 4: Determination of compound toxicity on GSC and normal human cells. (A) GB5 were incubated with growing concentration of Compounds 9a-b and 18a. (B) human normal neural stem cell (NNSC), human normal kidney cells (NHEK), human normal hepatocytes (HEPRG) and (C) human endothelial cells (HUVEC) were treated with growing concentration of Compound 9a. 7 days later, the cells were subjected to an XTT assays as described in the method section. The results are the meaning of at least two separate experiments. Cell death was confirmed by trypan blue staining (not shown).
II—XTT assay: TG6 and GB5 were seeded at 2000 cells/well in 96 wells plate in NS34+ alone or containing 10, 20, 25, 50 and 100 uM of Compounds 9a-b and 18a-b. Cultures were incubated 4 days and the cell proliferation was evaluated as indicated by the manufacturer.
(§2) V—Toxicity tests: NNSC, GB5, TG6, HEK293, and HepaRG, HUVEC were seeded at 2000 cells/well in 96 wells plate in their respective culture mediums alone or containing growing concentration from 10 to 500 uM of Compounds 9a-b. Cultures were incubated 4 days and the cellular toxicity has been evaluated by XTT assays. Cell viability has been also assessed by counting living and dead cells with trypan blue staining.
XTT assays allows, through cell metabolism measurement, to determine a cytotoxic/cytostatic effects. Compounds 9a-b and 18a were tested for their eventual toxicity by XTT assays as described in the material and method section. At the working concentrations 10 to 25 uM, the compounds are not toxic for GSC (FIG. 4A). […] Compound 9a toxicity was further tested on normal neural stem cells (NNSC), human kidney (NHEK), human hepatocytes (HEPRG) and human endothelial cells (HUVEC). The compound is not toxic on NNSC, NHEK, HEPRG and HUVEC cells when used between 10 to 50 uM. At 100 uM and above, Compound 9a was toxic (FIG. 4).

[2] = system: human endothelial cells (HUVEC); assay: XTT toxicity assay on human endothelial cells; assay type: cell-based
Procedure: as §1, §2
XTT assays allows, through cell metabolism measurement, to determine a cytotoxic/cytostatic effects. Compounds 9a-b and 18a were tested for their eventual toxicity by XTT assays as described in the material and method section. At the working concentrations 10 to 25 uM, the compounds are not toxic for GSC (FIG. 4A). […]

GB5 cells [3] = assay: TMZ assay: GSC sensitivity to Temozolomide (XTT); assay type: cell-based, human; conditions: three days
Procedure: FIG. 5: Sensitivity to TMZ was assessed by comparing the percentage of dead cells between TMZ treated GB5 and TMZ treated GB5 in combination with Compound 9a. GB5 cells have been treated with 400 uM TMZ alone or in combination with growing concentrations of Compounds 9a-b and 18b. The results are the meaning of at least two separate experiments.
IV—TMZ assay: TG6 and GB5 were seeded at 2000 cells/well in 96 wells plate in NS34+ or treated with medium containing 400 uM of TMZ alone or mixed with 10, 25 and 50 uM of Compounds 9a-b and 18a-b. Cultures were incubated 4 days and the cell viability has been evaluated by XTT assays and a count of living and dead cells with trypan blue staining.
Temozolomide is the chemotherapy of reference for GBM treatment. In order to assess whether the compounds might sensitize GSC to TMZ, TMZ (400 uM) pretreated GB5 cells were incubated with 10, 25 and 50 uM of Compounds 9a-b and 18b. Three days later the experiment is stop and the cells were subjected to an XTT assays. […] Cell toxicity was confirmed by trypan blue staining.

NCCCCNCCCNC(=O)c1csc(-c2csc(CCNC(=O)CCc3cn(CC4OC(OC5C(O)C(N)CC(N)C5OC5OC(CN)C(O)C(O)C5N)C(O)C4OC4OC(CN)C(O)C(O)C4N)nn3)n2)n1 (centres unmarked) [Compound 9a, N-(3-((4-Aminobutyl)amino)propyl)-2′-(2-(3-(1-methyl-1H-1,2,3-triazol-4-yl)propanamido)ethyl)-[2,4′-bithiazole]-4-carboxamide-neomycin]
GSC clonal expansion (GB5 cells [1]; GB5, spheroids counted after two and three weeks): altered | pIC50 (GB5 cells [1]; Homo sapiens, GB5, read-out: inhibition of clonal expansion IC50): > 5.00 | toxicity for GSC (XTT) (GB5; GB5, 50 uM and higher): relative toxicity | toxicity for GSC (XTT) (GB5; GB5, 10 to 25 uM): not toxic | toxicity (XTT) ([2]; 100 uM and above): toxic | toxicity (XTT) ([2]; between 10 to 50 uM): not toxic | increase of TMZ sensitivity (GB5 cells [3]; GB5, TMZ 400 uM plus compound at 10 uM): 2 fold | increase of TMZ sensitivity, maximal effect (GB5 cells [3]; GB5, TMZ 400 uM plus compound at 50 uM): 2.9 fold
